# Legend:
# Assay in all cases: biochemical
# [1] = target: T1, 5-hydroxytryptamine receptor 2C (Rattus norvegicus, UniProt P08909)
# T1 sequence (P08909 whole entry): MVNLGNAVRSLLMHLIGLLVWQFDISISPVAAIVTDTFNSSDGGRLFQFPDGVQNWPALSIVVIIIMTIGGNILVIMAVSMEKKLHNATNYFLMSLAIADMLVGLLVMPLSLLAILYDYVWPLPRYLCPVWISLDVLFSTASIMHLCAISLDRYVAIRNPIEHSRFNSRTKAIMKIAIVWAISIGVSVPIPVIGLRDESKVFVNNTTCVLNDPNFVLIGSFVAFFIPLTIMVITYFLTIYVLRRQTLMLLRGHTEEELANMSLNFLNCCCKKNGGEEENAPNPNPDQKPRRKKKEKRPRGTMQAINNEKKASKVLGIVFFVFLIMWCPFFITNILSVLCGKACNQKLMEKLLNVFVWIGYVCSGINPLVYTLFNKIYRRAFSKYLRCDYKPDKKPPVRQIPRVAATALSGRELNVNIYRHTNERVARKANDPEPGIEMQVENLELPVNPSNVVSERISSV
# D(2) dopamine receptor = D(2) dopamine receptor (Homo sapiens, UniProt P14416)
# Chain of D(2) dopamine receptor (P14416 whole entry): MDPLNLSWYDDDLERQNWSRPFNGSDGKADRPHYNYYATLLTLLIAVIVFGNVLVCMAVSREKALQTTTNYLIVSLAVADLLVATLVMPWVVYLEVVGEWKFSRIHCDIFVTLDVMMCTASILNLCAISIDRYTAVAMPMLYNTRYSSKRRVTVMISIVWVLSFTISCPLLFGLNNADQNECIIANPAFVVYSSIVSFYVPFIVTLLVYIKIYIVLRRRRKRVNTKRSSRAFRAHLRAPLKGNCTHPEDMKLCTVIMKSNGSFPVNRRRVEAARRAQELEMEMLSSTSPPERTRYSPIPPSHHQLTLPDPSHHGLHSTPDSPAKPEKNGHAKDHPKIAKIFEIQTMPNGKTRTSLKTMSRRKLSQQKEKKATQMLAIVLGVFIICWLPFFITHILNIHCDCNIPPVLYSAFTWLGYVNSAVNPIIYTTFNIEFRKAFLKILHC
# D(4) dopamine receptor = target: T2, D(4) dopamine receptor (Rattus norvegicus, UniProt P30729)
# T2 sequence (P30729 whole entry): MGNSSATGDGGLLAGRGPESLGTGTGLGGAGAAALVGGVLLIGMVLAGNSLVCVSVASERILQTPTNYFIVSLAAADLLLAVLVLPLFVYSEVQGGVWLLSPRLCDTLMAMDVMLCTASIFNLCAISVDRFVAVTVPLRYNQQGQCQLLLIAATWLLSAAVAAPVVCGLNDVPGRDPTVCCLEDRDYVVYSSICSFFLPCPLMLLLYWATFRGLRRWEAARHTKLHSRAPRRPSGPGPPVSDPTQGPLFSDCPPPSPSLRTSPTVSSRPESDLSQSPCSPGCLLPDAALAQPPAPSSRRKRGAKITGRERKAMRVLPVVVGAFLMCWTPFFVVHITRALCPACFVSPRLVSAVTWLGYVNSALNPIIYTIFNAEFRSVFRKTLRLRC
# [2] = target: Sodium-dependent serotonin transporter (Homo sapiens, UniProt P31645)
# Chain of Sodium-dependent serotonin transporter (P31645 whole entry): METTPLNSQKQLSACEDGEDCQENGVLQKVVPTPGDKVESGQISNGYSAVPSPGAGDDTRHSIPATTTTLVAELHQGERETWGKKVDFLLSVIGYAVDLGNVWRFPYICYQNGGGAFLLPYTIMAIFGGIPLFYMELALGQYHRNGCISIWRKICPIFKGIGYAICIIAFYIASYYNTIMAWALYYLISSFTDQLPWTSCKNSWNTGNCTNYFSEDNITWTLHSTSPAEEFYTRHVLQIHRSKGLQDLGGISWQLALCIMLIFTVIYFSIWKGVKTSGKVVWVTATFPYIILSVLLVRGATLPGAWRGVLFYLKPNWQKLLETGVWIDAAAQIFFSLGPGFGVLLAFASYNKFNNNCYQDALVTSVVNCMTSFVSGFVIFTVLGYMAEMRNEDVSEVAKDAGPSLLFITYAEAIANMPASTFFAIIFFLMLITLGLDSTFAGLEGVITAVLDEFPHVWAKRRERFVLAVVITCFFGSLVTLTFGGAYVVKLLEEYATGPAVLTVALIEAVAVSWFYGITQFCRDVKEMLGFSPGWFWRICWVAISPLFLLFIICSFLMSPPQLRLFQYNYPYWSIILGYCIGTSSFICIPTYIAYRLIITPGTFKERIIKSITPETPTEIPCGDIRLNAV
Compound,Ki [1] [nM],Ki (D(2) dopamine receptor) [nM],Ki (D(4) dopamine receptor) [nM],Ki [2] [nM]
COc1ccc(C(=O)CCCN2CCc3ccccc3C2)cc1,1400,–,–,–
O=C1c2ccccc2C(=O)N1CCCCN1CCC2CCCCC2C1 (stereo not given),–,> 10000,> 10000,> 10000
NC(=O)c1ccc(C(=O)CCCN2CCc3ccccc3C2)cc1,1890,–,–,–

# From ChEMBL document CHEMBL3817758, “Design and synthesis of dual 5-HT1A and 5-HT7 receptor ligands” (Bioorg Med Chem, 2016)
